Data as given in paper PMC11432087, “Hydrogen Sulfide-Releasing Carbonic Anhydrase Inhibitors Effectively Suppress Cancer Cell Growth” (International Journal of Molecular Sciences, 2024).
Like-named read-outs stand apart in the source and are kept apart here. Each block holds one compound with its values, some of them ahead of it.

Experiments:
hCA XII [1] = details: stopped-flow CO2 hydrase assay, mean of three assays; cited from earlier work
[2] = compound 150 µM, rat liver homogenate, 37 °C; cited from earlier work
HCT-116 [3] = test: Cell cycle analysis by DNA flow cytometry, HCT-116; type: cell-based, human; details: HCT-116, 24 h at IC50 concentration
Method: (§1) Following treatment, cells were washed twice with ice-cold phosphate-buffered saline (PBS). Subsequently, the treated cells were harvested through centrifugation, fixed in ice-cold 70% (v/v) ethanol, washed with PBS, re-suspended in 100 μg/mL RNase, stained with 40 μg/mL propidium iodide (PI), and subjected to flow cytometry analysis using FACS Calibur (Becton Dickinson, Franklin Lakes, NJ, USA). The cell cycle distributions were calculated using CellQuest software 5.1 (Becton Dickinson).

hCA IV [4] = test: Stopped-flow CO2 hydrase inhibition assay, hCA IV; type: biochemical, human; details: ratio of KIs
Method: (§2) An Applied Photophysics stopped-flow instrument (Applied Photophysics Ltd, Leatherhead, UK) was used for assaying the CA-catalyzed CO2 hydration activity. Phenol red (at a concentration of 0.2 mM) was used as an indicator, working at the absorbance maximum of 557 nm, with 20 mM Hepes (pH 7.5) as a buffer and 20 mM Na2SO4 for maintaining constant the ionic strength, following the initial rates of the CA-catalyzed CO2 hydration reaction for a period of 10−100 s. The CO2 concentrations ranged from 1.7 to 17 mM for the determination of the kinetic parameters and inhibition constants. For each inhibitor, at least six traces of the initial 5−10% of the reaction were used for determining the initial velocity. The uncatalyzed rates were determined in the same manner and subtracted from the total observed rates. Stock solutions of inhibitor (0.1 mM) were prepared in distilled−deionized water and dilutions up to 0.01 nM were made thereafter with the assay buffer. Inhibitor and enzyme solutions were preincubated together for 15 min at room temperature before the assay to allow for the formation of the E−I complex. The inhibition constants were obtained by nonlinear least-squares methods using Prism 7 (GraphPad Software, La Jolla, CA, USA) and the Cheng−Prusoff equation and represent the mean of at least three different determinations. The enzyme concentrations were in the range of 3–11 nM. All hCA isoforms were recombinant ones obtained in-house.

hCA II = details: stopped-flow CO2 hydrase assay, mean of three assays; cited from earlier work
MDA-MB-231 = test: MTT antiproliferative assay, MDA-MB-231; type: cell-based; details: Homo sapiens, normoxic conditions, 72 h
Method: (§3) These cell lines were cultured as monolayers in Dulbecco’s Modified Eagle’s Medium (DMEM) supplemented with 10% FBS, 2 mM l-glutamine, 100 U/mL penicillin, and 100 µg/mL streptomycin sulfate. […] The cells were sub-cultured using trypsin/EDTA solution, counted with a hemocytometer, and plated on 96-well plates (5000 cells/well), allowing them to form a semi-confluent monolayer overnight. […] DMSO (100 µL/well) was then added to dissolve the formazan crystals with shaking for 10 min, after which the absorb absorbance was read at 590 nm against no-cell blanks using a FLuo Star Optima microplate reader (BMG technologies, Ortenberg, Germany). Cell proliferation was calculated by comparing the OD values of the DMSO control wells with those of the samples, represented as % proliferation relative to the control.

A549 [5] = test: Annexin V-FITC/PI dual staining apoptosis assay, A549; type: cell-based, human; details: for Fold increase in overall apoptosis compared to untreated control: A549; for Early Apoptosis (Lower Right %) / Late Apoptosis (Upper Right %) / Total apoptosis: A549, treated at IC50 concentration
Method: (§4) Phosphatidylserine externalization was evaluated using the Annexin V-FITC/PI apoptosis detection kit (BD Biosciences, USA), following the manufacturer’s guidelines. […] Subsequently, the cells were re-suspended in 100 μL of binding buffer with the addition of 1 μL of FITC-Annexin V, followed by a 30-min incubation at 4 °C. After rinsing in binding buffer, the cells were resuspended in 150 μL of binding buffer with the addition of 1 μL of DAPI (1 μg/μL in PBS). Flow cytometry analysis was performed using the BD FACS Canto II flow cytometer and the results were interpreted with FlowJo7.6.4 software (Tree Star, Ashland, USA).

hCA I = details: stopped-flow CO2 hydrase assay, mean of three assays; cited from earlier work
hCA IV [6] = details: stopped-flow CO2 hydrase assay, mean of three assays; cited from earlier work
A549 [7] = test: MTT antiproliferative assay, A549; type: cell-based; details: Homo sapiens, normoxic conditions, 72 h
Method: The human triple-negative breast cancer cell line (MDA-MB-231), colon cancer cell line (HCT-116), and lung cancer cell line (A549) used in this study were obtained from the American Type Culture Collection (ATCC). These cell lines were cultured as monolayers in Dulbecco’s Modified Eagle’s Medium (DMEM) supplemented with 10% FBS, 2 mM l-glutamine, 100 U/mL penicillin, and 100 µg/mL streptomycin sulfate. […] The cells were sub-cultured using trypsin/EDTA solution, counted with a hemocytometer, and plated on 96-well plates (5000 cells/well), allowing them to form a semi-confluent monolayer overnight. […]. DMSO (100 µL/well) was then added to dissolve the formazan crystals with shaking for 10 min, after which the absorb absorbance was read at 590 nm against no-cell blanks using a FLuo Star Optima microplate reader (BMG technologies, Ortenberg, Germany). Cell proliferation was calculated by comparing the OD values of the DMSO control wells with those of the samples, represented as % proliferation relative to the control.

HCT-116 [8] = test: MTT antiproliferative assay, HCT-116 (normoxia and CoCl2-induced hypoxia); type: cell-based, human; details: for IC50 Normoxia / IC50 Hypoxia / IC50: HCT-116; for IC50: Homo sapiens, MTT, 72 h
Method: as §3

hCA IX [9] = test: Stopped-flow CO2 hydrase inhibition assay, hCA IX; type: biochemical, human; details: ratio of KIs
Method: as §2

A549 [10] = test: Cell cycle analysis by DNA flow cytometry, A549; type: cell-based, human; details: A549, 24 h at IC50 concentration
Method: as §1

HCT-116 [11] = test: Annexin V-FITC/PI dual staining apoptosis assay, HCT-116; type: cell-based, human; details: for Fold increase in overall apoptosis compared to untreated control: HCT-116; for Early Apoptosis (Lower Right %) / Late Apoptosis (Upper Right %) / Total apoptosis: HCT-116, treated at IC50 concentration
Method: as §4

hCA IX [12] = details: stopped-flow CO2 hydrase assay, mean of three assays; cited from earlier work
hCA XII [13] = test: Stopped-flow CO2 hydrase inhibition assay, hCA XII; type: biochemical, human; details: ratio of KIs
Method: as §2

[14] = chemically induced hypoxia with CoCl2·6H2O, read-out: IC50 HCT-116 (Hypoxia)
[15] = normoxic conditions, read-out: IC50 HCT-116 (Normoxia)

- hCA II/hCA IV selectivity ratio (hCA IV [4]): 18.3
- IC50 (MDA-MB-231): 9590 ± 310 nM
- IC50 (A549 [7]): 1780 ± 40 nM
- IC50 Normoxia / IC50 Hypoxia (HCT-116 [8]): 2.5
- IC50 (HCT-116 [8]; [14]): 930 ± 20 nM
- IC50 (HCT-116 [8]; [15]): 2300 ± 140 nM
- hCA II/hCA IX selectivity ratio (hCA IX [9]): 286
SMILES: NS(=O)(=O)c1ccc(CCN(Cc2cccc3ccccc23)C(=O)c2ccc(-c3cssc3=S)cc2)cc1 [Compound 30]
- Ki (hCA XII [1]): 7 nM
- H2S release half-life t/2 [2]: 5.0 min
- %G0-G1 (HCT-116 [3]): 28.22%
- %G2/M (HCT-116 [3]): 31.39%
- %S (HCT-116 [3]): 18.4%
- %Sub-G1 (HCT-116 [3]): 21.99%
- Ki (hCA II): 4460 nM
- Fold increase in overall apoptosis compared to untreated control (A549 [5]): 19.9 fold
- Early Apoptosis (Lower Right %) (A549 [5]): 5.36%
- Late Apoptosis (Upper Right %) (A549 [5]): 18.59%
- Total apoptosis (A549 [5]): 23.95%
- Ki (hCA I): > 10000 nM
- Ki (hCA IV [6]): 244 nM
- Increase in cytotoxicity under hypoxia compared to normoxia (HCT-116 [8]; HCT-116, chemically induced hypoxia): 2 fold
- Increase in activity concerning Staurosporine (HCT-116 [8]; HCT-116, hypoxic conditions): 10 fold
- Increase in activity concerning Staurosporine (HCT-116 [8]; HCT-116, normoxic conditions): 5 fold
- %G0-G1 (A549 [10]): 22.93%
- %G2/M (A549 [10]): 34.96%
- %S (A549 [10]): 20.77%
- %Sub-G1 (A549 [10]): 21.34%
- Fold increase in overall apoptosis compared to untreated control (HCT-116 [11]): 32.9 fold
- Early Apoptosis (Lower Right %) (HCT-116 [11]): 10.23%
- Late Apoptosis (Upper Right %) (HCT-116 [11]): 15.49%
- Total apoptosis (HCT-116 [11]): 25.72%

SMILES: NS(=O)(=O)c1ccc(CCN(Cc2ccccc2)C(=O)c2ccc(-c3cssc3=S)cc2)cc1 [Compound 19]
- Ki (hCA XII [1]): 9.7 nM
- Ki (hCA IX [12]): 43 nM
- Ki (hCA II): 480 nM
- Ki (hCA I): 771 nM
- Ki (hCA IV [6]): 4340 nM

SMILES: COc1ccc(CN(CCc2ccc(S(N)(=O)=O)cc2)C(=O)c2ccc(-c3cssc3=S)cc2)cc1OC [Compound 28]
- Ki (hCA XII [1]): 8.9 nM
- Ki (hCA IX [12]): 18.6 nM
- Ki (hCA II): 218 nM
- Ki (hCA I): 890 nM
- Ki (hCA IV [6]): 293 nM

- hCA II/hCA XII selectivity ratio (hCA XII [13]): 383
- IC50 (MDA-MB-231): 10400 ± 610 nM
- IC50 (A549 [7]): 7470 ± 310 nM
- IC50 Normoxia / IC50 Hypoxia (HCT-116 [8]): 0.6
- IC50 (HCT-116 [8]; [14]): 3730 ± 70 nM
- IC50 (HCT-116 [8]; [15]): 2300 ± 72 nM
- hCA II/hCA IX selectivity ratio (hCA IX [9]): 719
SMILES: COc1cc([N+](=O)[O-])ccc1CN(CCc1ccc(S(N)(=O)=O)cc1)C(=O)c1ccc(-c2cssc2=S)cc1 [Compound 26]
- Ki (hCA XII [1]): 7.7 nM
- H2S release half-life t/2 [2]: 4.9 min
- %G0-G1 (HCT-116 [3]): 27.14%
- %G2/M (HCT-116 [3]): 30.29%
- %S (HCT-116 [3]): 24.13%
- %Sub-G1 (HCT-116 [3]): 18.44%
- Ki (hCA IX [12]): 4.1 nM
- Ki (hCA II): 2950 nM
- Fold increase in overall apoptosis compared to untreated control (A549 [5]): 13.1 fold
- Early Apoptosis (Lower Right %) (A549 [5]): 6.47%
- Late Apoptosis (Upper Right %) (A549 [5]): 9.3%
- Total apoptosis (A549 [5]): 15.77%
- Ki (hCA I): 6700 nM
- Ki (hCA IV [6]): 4090 nM
- %G0-G1 (A549 [10]): 29.49%
- %G2/M (A549 [10]): 33.05%
- %S (A549 [10]): 22.54%
- %Sub-G1 (A549 [10]): 14.92%
- Fold increase in overall apoptosis compared to untreated control (HCT-116 [11]): 24.5 fold
- Early Apoptosis (Lower Right %) (HCT-116 [11]): 4.13%
- Late Apoptosis (Upper Right %) (HCT-116 [11]): 14.96%
- Total apoptosis (HCT-116 [11]): 19.09%

SMILES: NS(=O)(=O)c1ccc(CCN(Cc2csc3ccccc23)C(=O)c2ccc(-c3cssc3=S)cc2)cc1 [Compound 31]
- Ki (hCA XII [1]): 8 nM
- Ki (hCA IX [12]): 2.4 nM
- Ki (hCA II): 2480 nM
- Ki (hCA I): > 10000 nM

SMILES: CN(C)c1ccc(CN(CCc2ccc(S(N)(=O)=O)cc2)C(=O)c2ccc(-c3cssc3=S)cc2)cc1 [Compound 24]
- Ki (hCA XII [1]): 9.5 nM
- Ki (hCA IX [12]): 22.7 nM
- Ki (hCA II): 995 nM
- Ki (hCA I): 4260 nM
- Ki (hCA IV [6]): 3410 nM

SMILES: NS(=O)(=O)c1ccc(CCN(Cc2ccc([N+](=O)[O-])cc2)C(=O)c2ccc(-c3cssc3=S)cc2)cc1 [Compound 25]
- Ki (hCA XII [1]): 32.9 nM
- Ki (hCA IX [12]): 36.6 nM
- Ki (hCA II): 919 nM
- Ki (hCA I): 7450 nM
- Ki (hCA IV [6]): > 10000 nM
